Test results taken from article PMC12069643, “Structural insights into the selective recognition of RF-amide peptides by neuropeptide FF receptor 2” (EMBO Reports, 2025).

Key:
Type in all cases: cell-based
NPFFR2 mutants [1] = target: T1, NPFFR2 mutants (Homo sapiens, UniProt Q9Y5X5, Y321A); assay: GloSensor forskolin-stimulated cAMP assay, NPFFR2 mutants; details: NPFFR2 Y2195.38A, HEK293T, three independent experiments
T1 construct: expressed in transfected cells; host or cells: HEK293T (pcDNA3.1 NPFFR2 mutants)
T1 sequence (Q9Y5X5 103-522 Y321A): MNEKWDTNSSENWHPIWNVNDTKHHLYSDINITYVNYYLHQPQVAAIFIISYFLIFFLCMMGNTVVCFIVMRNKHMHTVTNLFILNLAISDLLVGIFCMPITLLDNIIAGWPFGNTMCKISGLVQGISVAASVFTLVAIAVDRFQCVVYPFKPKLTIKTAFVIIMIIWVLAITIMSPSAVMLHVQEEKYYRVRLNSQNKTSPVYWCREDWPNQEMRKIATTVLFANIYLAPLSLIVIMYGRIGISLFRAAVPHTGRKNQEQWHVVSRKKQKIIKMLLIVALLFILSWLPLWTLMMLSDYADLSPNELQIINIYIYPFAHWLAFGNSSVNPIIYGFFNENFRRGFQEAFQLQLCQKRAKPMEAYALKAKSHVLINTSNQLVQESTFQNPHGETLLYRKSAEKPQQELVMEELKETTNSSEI
Excerpt: (§1) Figure 2 Interaction of hNPSF with NPFFR2. (A) Residues participating in the interactions between hNPSF and NPFFR2 in the transmembrane (TM) binding pocket are shown as sticks. Dashed lines indicate polar interactions and hydrogen bonds between residues. Zoomed-in views highlighting interactions of the C-terminal segment (residues −1 to −4, PQRF), middle segment (residues −5 to −8, FLFQ), and the N-terminal segment (residues −9 to −11, SQA) of hNPSF are enclosed in red, blue, and yellow boxes, respectively. (B) NPFFR2 residues interacting with hNPSF were mutated to alanine, and the impact of each mutation on the EC50 value (ΔpEC50) was investigated using a forskolin-stimulated cAMP assay, after confirming surface expression of each mutant by an ELISA-based surface expression assay (Appendix Fig. S5). Three independent experiments (with technical triplicates) were conducted for each mutant. The bar graphs represent the mean of ΔpEC50 values from each experiment, with error bars indicating SEM. Statistical analyses were performed using ordinary one-way ANOVA followed by Dunnett’s test, comparing to the wild-type response. ns (not significant, P > 0.05); *P < 0.05; **P < 0.01; ***P < 0.001. Source data are available online for this figure.
(§2) HEK293T cells were seeded at a density of 6 × 10^5 cells per well in a six-well cell culture plate (SPL) and co-transfected with expression plasmids encoding GloSensor™ and each NPFFR construct, using 1 µg to 4 µg of DNA per well according to the Lipofectamine™ 2000 Transfection Reagent (Invitrogen) protocol. After 48 h of incubation under standard conditions (37 °C, 5% CO2), the cells were detached using Accutase solution (Sigma-Aldrich) and washed with PBS. The cells were then pelleted by centrifugation, resuspended in CO2-independent medium (Gibco) supplemented with Firefly D-Luciferin (0.5 mg/ml, NanoLight), and distributed into a 96-well white plate (SPL). After a 2-hour incubation, serially diluted ligands and 0.5 μM forskolin were added to each well to detect ligand-induced signaling. Luminescence signals were measured using a Mithras LB940 instrument (Berthold) with a measurement time of 1 s per well.
(§3) Data from the GloSensor^TM cAMP signaling assays were analyzed using GraphPad Prism with a three-parameter logistic model to fit concentration-response curves for both wild-type (WT) and mutant receptors. Mutant expression levels and DNA amounts were adjusted to match WT conditions. ΔpEC50 values were calculated by subtracting the log EC50 of the WT receptor from that of each mutant. Results are presented as mean ± SEM from three independent biological replicates, each performed in duplicate or more. Error bars represent the SEM. Statistical significance was assessed using one-way ANOVA, followed by Dunnett’s tests comparisons to the WT receptor. Significance levels were reported as follows: ns (not significant, P > 0.05); *P < 0.05; **P < 0.01; ***P < 0.001.
(§4) Appendix Figure S5. GloSensorTM cAMP assays of mutants and wild-type NPFFR2.
(§5) The dose-response of cAMP assay data for each mutant (red) presented in Fig. 2B are compared against the wild-type NPFFR2 (blue). Each experiment was conducted after adjusting the mutant's expression level to that of the wild-type NPFFR2 (Appendix Fig. S3), and pcDNA3.1 was used to match the total amount of DNA transfected. Data points represent mean values from three independent experiments (each with technical triplicate), with error bars indicating SEM. Raw data were normalized to the vehicle -treated (0%) and 0.5 μM forskolin-treated (100%) responses.
(§6) (% of forskolin stimulation) […]

NPFFR2 mutants [2] = target: T2, NPFFR2 mutants (Homo sapiens, UniProt Q9Y5X5, T322A); assay: as above; details: NPFFR2 T2205.39A, HEK293T, three independent experiments
T2 construct: expressed in transfected cells; host or cells: HEK293T (pcDNA3.1 NPFFR2 mutants)
T2 sequence (Q9Y5X5 103-522 T322A): as the sequence (Q9Y5X5 103-522 Y321A) above, with A219Y, T220A counted along it
Excerpt: as §1, §2, §3, §4, §5, §6

NPFFR2 mutants [3] = target: T3, NPFFR2 mutants (Homo sapiens, UniProt Q9Y5X5, H421A); assay: as above; details: NPFFR2 H3197.39A, HEK293T, three independent experiments
T3 construct: expressed in transfected cells; host or cells: HEK293T (pcDNA3.1 NPFFR2 mutants)
T3 sequence (Q9Y5X5 103-522 H421A): as the sequence (Q9Y5X5 103-522 Y321A) above, with A219Y, H319A counted along it
Excerpt: as §1, §2, §3, §4, §5, §6

NPFFR2 mutants [4] = target: T4, NPFFR2 mutants (Homo sapiens, UniProt Q9Y5X5, V231A); assay: as above; details: NPFFR2 V1293.36A, HEK293T, three independent experiments
T4 construct: expressed in transfected cells; host or cells: HEK293T (pcDNA3.1 NPFFR2 mutants)
T4 sequence (Q9Y5X5 103-522 V231A): as the sequence (Q9Y5X5 103-522 Y321A) above, with V129A, A219Y counted along it
Excerpt: as §1, §2, §3, §4, §5, §6

NPFFR2 mutants [5] = target: T5, NPFFR2 mutants (Homo sapiens, UniProt Q9Y5X5, R318A); assay: as above; details: NPFFR2 R2165.35A, HEK293T, three independent experiments
T5 construct: expressed in transfected cells; host or cells: HEK293T (pcDNA3.1 NPFFR2 mutants)
T5 sequence (Q9Y5X5 103-522 R318A): as the sequence (Q9Y5X5 103-522 Y321A) above, with R216A, A219Y counted along it
Excerpt: as §1, §2, §3, §4, §5, §6

NPFFR2 mutants [6] = target: T6, NPFFR2 mutants (Homo sapiens, UniProt Q9Y5X5, W213A); assay: as above; details: NPFFR2 W11123.50A, HEK293T, three independent experiments
T6 construct: expressed in transfected cells; host or cells: HEK293T (pcDNA3.1 NPFFR2 mutants)
T6 sequence (Q9Y5X5 103-522 W213A): as the sequence (Q9Y5X5 103-522 Y321A) above, with W111A, A219Y counted along it
Excerpt: as §1, §2, §3, §4, §5, §6

human NPFFR2 = target: T7, human NPFFR2 (Homo sapiens, UniProt Q9Y5X5); assay: GloSensor forskolin-stimulated cAMP assay, NPFFR2 wild-type; details: HEK293T, 0.5 μM forskolin; for Emax: HEK-293T
T7 construct: expressed in transfected cells; host or cells: HEK293T (pcDNA3.1 NPFFR2)
T7 sequence (Q9Y5X5 103-522): as the sequence (Q9Y5X5 103-522 Y321A) above, with A219Y counted along it
Description: Figure 1 Structural analysis and downstream signaling of NPFFR2. (A) The concentration-dependent response of various agonists on NPFFR2 is measured using a forskolin-stimulated cAMP assay. Data points represent mean values from three independent experiments (each with technical triplicate), with error bars indicating SEM (standard error of the mean). Raw data were normalized to the vehicle-treated (0%) and 0.5 μM forskolin-treated (100%) responses. […] (C) The extracellular loop 2 (ECL2, pink) and N-terminus (Nt, blue) of NPFFR2 are depicted using a cartoon model. […] Source data are available online for this figure.
as §2, §3

[7] = NPFFR2 wild type (50% DNA treated), three independent experiments

CC(C)C[C@H](NC(=O)[C@H](Cc1ccccc1)NC(=O)[C@H](C)NC(=O)[C@H](CCC(N)=O)NC(=O)[C@@H](N)CO)C(=O)N[C@@H](Cc1ccccc1)C(=O)N[C@@H](CCC(N)=O)C(=O)N1CCC[C@H]1C(=O)N[C@@H](CCC(N)=O)C(=O)N[C@@H](CCCNC(=N)N)C(=O)N[C@@H](Cc1ccccc1)C(N)=O [hNPSF]
Emax (NPFFR2 mutants [1]; HEK-293T): 72 ± 3% | EC50 (NPFFR2 mutants [1]): 100 nM | Emax (NPFFR2 mutants [2]; HEK-293T): 70 ± 5% | EC50 (NPFFR2 mutants [2]): 631 nM | Emax (NPFFR2 mutants [3]; HEK-293T): 57 ± 2% | EC50 (NPFFR2 mutants [3]): 63.1 nM | Emax (NPFFR2 mutants [4]; HEK-293T): 79 ± 3% | EC50 (NPFFR2 mutants [4]): 126 nM | Emax (NPFFR2 mutants [5]; HEK-293T): 85 ± 3% | EC50 (NPFFR2 mutants [5]): 10 nM | Emax (NPFFR2 mutants [6]; HEK-293T): 78 ± 5% | EC50 (NPFFR2 mutants [6]): 1260 nM | Emax (human NPFFR2; [7]): 56 ± 2% | Emax (human NPFFR2; NPFFR2 wild-type (100% DNA treated for hNPSF), mean of three independent experiments ± SEM): 77 ± 3% | EC50 (human NPFFR2; [7]): 6.31 nM | EC50 (human NPFFR2; NPFFR2 wild-type (100% DNA treated for hNPSF), three independent experiments): 3.16 nM
